Test results from patent US9505713B2, “High-purity sodium p-styrenesulfonate with excellent hue, method for producing the same, poly(sodium p-styrenesulfonate) with excellent hue using the same, and dispersant and synthetic starch for clothing finishing using the poly(sodium p-styrenesulfonate)” (TOSOH ORGANIC CHEMICAL CO., LTD., priority 2012, dated 2016).
Several values for one entry are separate records, joined by “and”; a condition that tells them apart may be missing. Equal entries are not always repeated.

Tests used:
Type in all cases: physicochemical
[1] = Measurement of repose angle (fluidity of powder)
Description: <Measurement of Repose Angle>
(1) Instruments and Apparatus
1) On a dish, 80 g of a sample is naturally dropped through a funnel of the apparatus.
2) The vertical angle (a) of a circular cone formed on the dish is read with the protractor up to a digit of an integer.
3) This operation is repeated 3 times, and the average value of the vertical angle (a) of the circular cone is determined.
(§1) The repose angle is calculated by the following equation. […] A=(180−a)/2 wherein A is the repose angle (degrees) and a is the vertical angle (degrees) of the circular cone. <Measurement of Rate of Dissolution (Solubility in Water)>

[2] = Measurement of particle size distribution (laser diffraction/scattering, Microtrack HRA)
Description: <Measurement of Particle Size Distribution>
In a 30-ml glass sample bottle, 0.55 g of a sample and 15.0 g of isopropanol were collected, and treated with an ultrasonic washer for 4 minutes while keeping the temperature at 25° C. or less to prepare a slurry. Thereafter, the particle size (median diameter) distribution was measured under the following conditions, using a laser diffraction/scattering type particle size analyzer, Microtrack HRA (manufactured by Nikkiso Co., Ltd.).
Particle transparency=Transp
Particle refractive Index=1.55
Fluid refractive Index=1.38

[3] = Measurement of rate of dissolution (solubility in water); details: 25° C.
Description: as §1
In a 20-ml glass sample bottle (27 mm in outer diameter×55 mm in depth), 1.00 g of a sodium p-styrenesulfonate powder (wet powder containing impurities and water) was accurately weighed in a temperature-controlled room of 25° C., and thereafter, 9.00 g of ion-exchanged water was quickly added thereto. Then, the sample bottle was turned upside down with a period of one cycle per second, and the time before dissolution of sodium p-styrenesulfonate was visually judged.

[4] = APHA values of 15 wt % aqueous sodium p-styrenesulfonate and poly(sodium p-styrenesulfonate) solutions; details: 15 wt % aqueous solution of the monomer
Description: <Measurement of APHA values of Aqueous Sodium p-Styrenesulfonate and Aqueous Poly(Sodium p-Styrenesulfonate) Solutions>
After a color-difference meter (manufactured by Nippon Denshoku Industries Co., Ltd., C-106) was switched on and stabilized for 30 minutes, a measuring method was changed to transmission, and a light projection lens (30 mm in diameter) and a sample stand (30 mm in diameter) were attached thereto. A standard white plate and a 0-CAL plate were set, and zero calibration was performed. After water was poured in a square cell and standard calibration was performed, 15 wt % aqueous sodium p-styrenesulfonate solution and 15 wt % aqueous poly(sodium p-styrenesulfonate) solution samples were each transferred into the square cell, and set, followed by reading the APHA values (converted from a calibration curve prepared by using standard solutions having APHA values of 0 to 500).

[5] = Whiteness and yellowness of sodium p-styrenesulfonate powder with color-difference meter; details: sodium p-styrenesulfonate crystal powder
Description: <Measurement of Whiteness and Yellowness of Sodium p-Styrenesulfonate with Color-Difference Meter>
After a color-difference meter (manufactured by Nippon Denshoku Industries Co., Ltd., C-106) was switched on and stabilized for 30 minutes, a light projection lens (30 mm in diameter) and a sample stand (30 mm in diameter) were attached thereto, and standard adjustment was performed. In a cell, 3.0 g of a sample was weighed, and a weight of 1 kg was placed thereon for 30 seconds. Thereafter, it was confirmed that there were no space and no wrinkles at a bottom portion of the cell. Measurement was made with the color-difference meter to read the whiteness (WI value) and the yellowness (YI value).

[6] = before purification, Table 2, 1.00 g in 9.00 g water
[7] = after purification, Table 2, 1.00 g in 9.00 g water
[8] = listed as sodium p-styrenesulfonate A
[9] = sodium p-styrenesulfonate powder, Table 1, smaller = better fluidity
[10] = sodium p-styrenesulfonate powder, Table 1
[11] = 1.00 g powder in 9.00 g ion-exchanged water, Table 1
[12] = listed as sodium p-styrenesulfonate B

C=Cc1ccc(S(=O)(=O)[O-])cc1.[Na+] [Example 6, sodium p-styrenesulfonate]
Repose angle ([1]; before purification, Table 2): 47 deg
Median diameter ([2]; before purification, Table 2): 63.1 μm
Small particles less than 10.00 μm ([2]; before purification, Table 2): 1.5%
Rate of dissolution (dissolution time in water) [3, 6]: 160 s

C=Cc1ccc(S(=O)(=O)[O-])cc1.[Na+] [Comparative Example 8, sodium p-styrenesulfonate]
Repose angle ([1]; before purification, Table 2): 45 deg
Median diameter ([2]; before purification, Table 2): 160 μm and 160.0 μm
Small particles less than 10.00 μm ([2]; before purification, Table 2): 0.0%
Rate of dissolution (dissolution time in water) [3, 6]: 270 s

C=Cc1ccc(S(=O)(=O)[O-])cc1.[Na+] [Example 7, sodium p-styrenesulfonate]
Repose angle ([1]; before purification, Table 2): 43 deg
Median diameter ([2]; before purification, Table 2): 110 μm and 110.0 μm
Small particles less than 10.00 μm ([2]; before purification, Table 2): 0.0%
Rate of dissolution (dissolution time in water) [3, 6]: 200 s

C=Cc1ccc(S(=O)(=O)[O-])cc1.[Na+] [Example 9, sodium p-styrenesulfonate]
Repose angle ([1]; after purification, Table 2): 50 deg
Median diameter ([2]; after purification, Table 2): 48 μm and 48.0 μm
Small particles less than 10.00 μm ([2]; after purification, Table 2): 2.5%
Rate of dissolution (dissolution time in water) [3, 7]: 130 s

C=Cc1ccc(S(=O)(=O)[O-])cc1.[Na+] [Comparative Example 9, sodium p-styrenesulfonate]
Repose angle ([1]; after purification, Table 2): 58 deg
Repose angle ([1]; before purification, Table 2): 59 deg
Median diameter ([2]; after purification, Table 2): 25.1 μm
Small particles less than 10.00 μm ([2]; after purification, Table 2): 1.6%
Median diameter ([2]; before purification, Table 2): 22.0 μm
Small particles less than 10.00 μm ([2]; before purification, Table 2): 12.5%
Rate of dissolution (dissolution time in water) [3, 7]: 130 s
Rate of dissolution (dissolution time in water) [3, 6]: 127 s

C=Cc1ccc(S(=O)(=O)[O-])cc1.[Na+] [Comparative Example 1, sodium p-styrenesulfonate]
Solution APHA value (hue of sodium p-styrenesulfonate) [4]: 220
Solution APHA value (hue of sodium p-styrenesulfonate) [4, 8]: 220
Repose angle [1, 9]: 60 deg
Median diameter [2, 10]: 20.2 μm
Small particles less than 10.00 μm [2, 10]: 12.6%
Rate of dissolution (dissolution time in water) [3, 11]: 132 s
Whiteness (WI value) [5]: 90.2
Yellowness (YI value) [5]: 16.5
Whiteness (WI value) [5, 8]: 90.2
Yellowness (YI value) [5, 8]: 16.5

C=Cc1ccc(S(=O)(=O)[O-])cc1.[Na+] [Comparative Example 6, sodium p-styrenesulfonate]
Solution APHA value (hue of sodium p-styrenesulfonate) [4]: 200
Solution APHA value (hue of sodium p-styrenesulfonate) [4, 12]: 200
Repose angle [1, 9]: 59 deg
Median diameter [2, 10]: 21.3 μm
Small particles less than 10.00 μm [2, 10]: 12.7%
Rate of dissolution (dissolution time in water) [3, 11]: 122 s
Whiteness (WI value) [5]: 91.0
Yellowness (YI value) [5]: 16.0
Whiteness (WI value) [5, 12]: 91.0
Yellowness (YI value) [5, 12]: 16.0

C=Cc1ccc(S(=O)(=O)[O-])cc1.[Na+] [Comparative Example 3, sodium p-styrenesulfonate]
Solution APHA value (hue of sodium p-styrenesulfonate) [4]: 150
Repose angle [1, 9]: 59 deg
Median diameter [2, 10]: 21.5 μm
Small particles less than 10.00 μm [2, 10]: 12.1%
Rate of dissolution (dissolution time in water) [3, 11]: 123 s
Whiteness (WI value) [5]: 93.5
Yellowness (YI value) [5]: 12.5

C=Cc1ccc(S(=O)(=O)[O-])cc1.[Na+] [Example 5, sodium p-styrenesulfonate]
Solution APHA value (hue of sodium p-styrenesulfonate) [4]: 80
Repose angle [1, 9]: 59 deg
Median diameter [2, 10]: 18.6 μm
Small particles less than 10.00 μm [2, 10]: 14.3%
Rate of dissolution (dissolution time in water) [3, 11]: 130 s
Whiteness (WI value) [5]: 95.0
Yellowness (YI value) [5]: 7.5

C=Cc1ccc(S(=O)(=O)[O-])cc1.[Na+] [Example 8, sodium p-styrenesulfonate]
Repose angle ([1]; before purification, Table 2): 51 deg
Median diameter ([2]; before purification, Table 2): 37 μm and 37.0 μm
Small particles less than 10.00 μm ([2]; before purification, Table 2): 3.1%
Rate of dissolution (dissolution time in water) [3, 6]: 140 s

C=Cc1ccc(S(=O)(=O)[O-])cc1.[Na+] [Example 2, sodium p-styrenesulfonate]
Solution APHA value (hue of sodium p-styrenesulfonate) [4]: 15
Repose angle [1, 9]: 49 deg
Median diameter [2, 10]: 63 μm and 63.0 μm
Small particles less than 10.00 μm [2, 10]: 2.0%
Rate of dissolution (dissolution time in water) [3, 11]: 155 s
Whiteness (WI value) [5]: 95.5
Yellowness (YI value) [5]: 2.9

C=Cc1ccc(S(=O)(=O)[O-])cc1.[Na+] [Comparative Example 7, sodium p-styrenesulfonate]
Repose angle ([1]; after purification, Table 2): 58 deg
Repose angle ([1]; before purification, Table 2): 59 deg
Median diameter ([2]; after purification, Table 2): 22.3 μm
Small particles less than 10.00 μm ([2]; after purification, Table 2): 3.1%
Median diameter ([2]; before purification, Table 2): 19.8 μm
Small particles less than 10.00 μm ([2]; before purification, Table 2): 13.6%
Rate of dissolution (dissolution time in water) [3, 7]: 128 s
Rate of dissolution (dissolution time in water) [3, 6]: 130 s

C=Cc1ccc(S(=O)(=O)[O-])cc1.[Na+] [Example 1, sodium p-styrenesulfonate]
Solution APHA value (hue of sodium p-styrenesulfonate) [4]: 30
Repose angle [1, 9]: 46 deg
Median diameter [2, 10]: 81 μm and 81.0 μm
Small particles less than 10.00 μm [2, 10]: 0.5%
Rate of dissolution (dissolution time in water) [3, 11]: 165 s
Whiteness (WI value) [5]: 95.7
Yellowness (YI value) [5]: 5.8

C=Cc1ccc(S(=O)(=O)[O-])cc1.[Na+] [Comparative Example 4, sodium p-styrenesulfonate]
Solution APHA value (hue of sodium p-styrenesulfonate) [4]: 120
Repose angle [1, 9]: 60 deg
Median diameter [2, 10]: 20.6 μm
Small particles less than 10.00 μm [2, 10]: 14.3%
Rate of dissolution (dissolution time in water) [3, 11]: 126 s
Whiteness (WI value) [5]: 93.0
Yellowness (YI value) [5]: 10.1
